Holding throughout (format): cell-based, human
One data set has as its system LC3-II. Kind of data set: Autophagy induction assay (LC3-II/LC3-I ratio by western blot). To be noted: SH-SY5Y cells; for LC3-II expression: treatment with astersaponin I. The procedure:
Protein markers contained in lysates of the SH-SY5Y cells and brain tissue of the mice (SNpc and ST) were measured by western blot analysis. Briefly, after determining a concentration, a protein sample (20 μg) was separated by 8%, 10%, or 15% sodium dodecyl sulfate-polyacrylamide gel electrophoresis (SDS-PAGE). Then, proteins separated on the gel were transferred to a polyvinylidene fluoride (PVDF) membrane for 45 minutes using a Trans-Blot Turbo Transfer System (Bio-Rad, USA). The membrane was washed with tris-buffered saline with 0.1% Tween 20, TBST) for 5 minutes and then blocked by 5% skim milk dissolved in a TBST buffer. The membrane was further incubated with monoclonal primary antibodies derived from rabbits (anti-GAPDH, anti-AMPK, anti-p-AMPK, anti-ULK, anti-p-ULK555, anti-Erk, anti-p-Erk, anti-mTOR, anti-p-mTOR, anti-LC3B, anti-TH, and anti-α-synuclein antibodies). The primary antibodies were diluted in a blocking buffer at a ratio of 1:1000 and incubated overnight at 4° C. On the second day, the membrane was washed with TBST three times (10 minutes each) and incubated at room temperature in a horseradish peroxidase-conjugated goat anti-rabbit IgG secondary antibody (diluted in a blocking buffer at a ratio of 1:2000). After incubating in the secondary antibody for 1 hour, the membrane was washed for 30 minutes. The protein blots on the membrane were developed using an ECL detection kit and visualized using an LAS-4000 mini system (Fujifilm, Japan). The intensity of the protein blots was quantified using Multi Gauge software (Fujifilm, Japan).
To investigate the autophagy inducing effect of A. koraiensis, human neuroblastoma (SH-SY5Y) cells were cultivated in 6-well plates at a density of 8×10^5 cells/well in 2 mL DMEM medium (Gibco) at 37° C. in a humidified atmosphere with 5% CO2. […] The protein expression of LC3-II in cell lysates was measured using western blot analysis. […] The immune blots were visualized using an ECL detection kit and analyzed using a LAS-4000 mini system (Fujifilm).
A general note: A western blot detects proteins with antibodies after separation by electrophoresis.

The subject of a further data set is SH-SY5Y cells. Kind of data set: MTT assay to measure cell viability. To be noted: 24 hours. The procedure: Cell viability was detected using an MTT assay kit (Z-Cytox). Briefly, the SH-SY5Y cells were seeded on a 96-well plate at a density of 2×10^4 cells/well with 100 μL of a culture medium. After 24 hours, the SH-SY5Y cells were treated with AKNS-2 and/or MPP^+ having desired concentrations to identify cytotoxicity of AKNS-2 and MPP^+. After 24 hours, 10 μL of the MTT reagent was added to each well of the 96-well plate including the cells. Absorbance was measured at 450 nm using a microplate spectrophotometer (BioTek, Vt., USA). […] The next day, absorbance was measured at 1 hour after adding the MTT reagent thereto.
(Tetrazolium assays rely on reduction of a dye to a coloured formazan, in cell work by metabolically active cells.)

Data set [1] relates to LC3, p62, TH and α-synuclein in SH-SY5Y cells. Kind of data set: Western blot of LC3, p62, TH and α-synuclein in MPP^+-treated SH-SY5Y cells (in vitro PD model). The method, then: Human neuroblastoma (SH-SY5Y) cells were purchased from the American Type Culture Collection (Manassas, Va., USA) and cultured in DMEM supplemented with 10% heat-inactivated FBS and 1% penicillin/streptomycin. The SH-SY5Y cells were cultured at 37° C. in a humid atmosphere containing 5% CO2. […] The SH-SY5Y cells were transfected with AMPK siRNA and then administered with AKNS-2 at 36 hours after siRNA transfection. […] After 24 hours from treatment with the samples, the SH-SY5Y cells were recovered and used for subsequent analysis. At 24 hours after drug treatment, the culture medium was removed from the 6-well plate, and the cells were gently washed once with cold saline. Subsequently, 1 mL of cold saline was added to each well, and cells attached to the bottom were floated by rubbing the bottom with a 1 mL pipette. The suspension was collected in a 1.5 mL tube and centrifuged at 4° C. at 13000×g for 5 minutes. After removing a supernatant, 50 μL of a RIPA lysis buffer including a protease inhibitor cocktail (Roche, Mannheim, Germany) and purchased from Cell Signaling Technology (Danvers, Mass., USA) was added to the cell pellet. After shaking the mixture at 4° C. for 30 minutes, the obtained cells were centrifuged at 4° C. at 13000×g for 20 minutes. A supernatant was collected therefrom, and a concentration of proteins was measured using a standard curve constructed using BSA by the Bradford method. Then, the supernatant was diluted with a loading buffer and heated at 99° C. for 5 minutes. Resultant cells were used in a subsequent western blot analysis. Protein markers contained in lysates of the SH-SY5Y cells and brain tissue of the mice (SNpc and ST) were measured by western blot analysis. Briefly, after determining a concentration, a protein sample (20 μg) was separated by 8%, 10%, or 15% sodium dodecyl sulfate-polyacrylamide gel electrophoresis (SDS-PAGE). Then, proteins separated on the gel were transferred to a polyvinylidene fluoride (PVDF) membrane for 45 minutes using a Trans-Blot Turbo Transfer System (Bio-Rad, USA). […] The membrane was further incubated with monoclonal primary antibodies derived from rabbits (anti-GAPDH, anti-AMPK, anti-p-AMPK, anti-ULK, anti-p-ULK555, anti-Erk, anti-p-Erk, anti-mTOR, anti-p-mTOR, anti-LC3B, anti-TH, and anti-α-synuclein antibodies). The primary antibodies were diluted in a blocking buffer at a ratio of 1:1000 and incubated overnight at 4° C. On the second day, the membrane was washed with TBST three times (10 minutes each) and incubated at room temperature in a horseradish peroxidase-conjugated goat anti-rabbit IgG secondary antibody (diluted in a blocking buffer at a ratio of 1:2000). After incubating in the secondary antibody for 1 hour, the membrane was washed for 30 minutes. The protein blots on the membrane were developed using an ECL detection kit and visualized using an LAS-4000 mini system (Fujifilm, Japan). The intensity of the protein blots was quantified using Multi Gauge software (Fujifilm, Japan).

Entries after “also recorded” stand apart in the source; their conditions may differ.

`C[C@@H]1O[C@@H](O[C@@H]2[C@@H](O)[C@H](O[C@@H]3[C@@H](O[C@@H]4OC[C@@H](O)[C@H](O)[C@H]4O)[C@@H](O)[C@H](O[C@H]4[C@H](OC(=O)[C@]56CCC(C)(C)C[C@H]5C5=CC[C@@H]7[C@@]8(C)C[C@H](O)[C@H](O[C@@H]9O[C@H](CO)[C@@H](O)[C@H](O[C@@H]%10OC[C@@H](O)[C@H](O)[C@H]%10O)[C@H]9O)[C@@](C)(CO)[C@@H]8CC[C@@]7(C)[C@]5(C)C[C@H]6O)OC[C@H](O)[C@@H]4O)O[C@H]3C)OC[C@H]2O)[C@H](O)[C@H](O)[C@H]1O` [Compound 1, 3-O-β-D-xylopyranosyl-(1→3)-β-D-glucopyranosylpolygalacic acid 28-O-α-L-rhamnopyranosyl-(1→3)-β-D-xylopyranosyl-(1→4)-[β-D-xylopyranosyl-(1→3)]-α-L-rhamnopyranosyl-(1→2)-α-L-arabinopyranosyl ester]: in the data set with LC3-II (24 hours, 5 μM, 10 μM and 20 μM), the LC3-II/LC3-I ratio result is recorded as “increase in the LC3-II/LC3-I ratio in a dose-dependent manner”. The LC3-II expression result is given as “significantly increasing the expression” in the data set with LC3-II and “up-regulated LC3-II expression in a dose-dependent manner” in the data set on LC3-II (listed as astersaponin I). Also, the “cell viability damaged by MPP^+ (MTT)” value in the data set on SH-SY5Y cells (AKNS-2 5 μM and 10 μM 1 hour before 2 mM MPP^+) is on record as “significantly improved cell viability damaged by 2 mM MPP^+; also recorded: significantly enhanced cell viability that had decreased by MPP^+; also recorded: reversed the effects of MPP^+ on cell viability”. Moreover, the “cytotoxicity (cell viability, MTT)” value in the data set with SH-SY5Y cells (AKNS-2 alone, up to 40 μM) is recorded as “did not significantly affect cytotoxicity”. Also, in data set [1] (AKNS-2 (5 μM and 10 μM) + 2 mM MPP^+ vs MPP^+ alone), the “expression of TH” value was “the MPP^+-induced decrease in expression of TH was reversed; also recorded: the decreased expression of TH may be restored; also recorded: offset toxicity of MPP^+ and reversed the expression of TH”. Moreover, the “expression of α-synuclein” value in data set [1] (AKNS-2 + 2 mM MPP^+ vs MPP^+ alone) was “canceled out the effects of MPP^+ and inhibited the expression of α-synuclein; also recorded: the increased expression level of α-synuclein was decreased”.

Values taken from patent publication US12234257B2, “Triterpene saponin derivative and use thereof” (KOREA INSTITUTE OF SCIENCE AND TECHNOLOGY, priority 2020, dated 2025).
